Results as given in patent US4816490A, “Novel therapeutic use of a derivative of indane dione and the pharmaceutical compositions intended for this use” (priority 1987, dated 1989).

What was measured:
[1] = Acute toxicity after single oral administration; format: in vivo; conditions: mouse, in vivo, po
Excerpt: (§1) Male and female mice of Swiss strain weighing from 22 to 25 g of body weight were free of pathogen specific organisms (EOPS), stemming from breeding CERJ (53860 LE GENEST (France) and acclimated for at least 8 days in the animalry of the firm.
(§2) Except where stipulated to the contrary, in the tables giving the results, 10 animals of the same sex for each dose were housed in cages of MAKROLON (Safi) of 40 cm by 25 cm filled with shaving of wood. Standard feeding for rats and mice, tablets UAR and tap water ad libitum.
(§3) The compounds were administered without previous fasting either orally (gastric tubing using a metallic oesophageous sonde) at a rate of 0.5 ml or 1 ml per 20 g of body weight of an aqueous suspension of the test compound in a 3% solution of arabic gum, or intraperitoneally at a rate of 0.5 ml or 1 ml per 20 g of body weight of the test compound suspended in an isotonic saline solution containing 3% of arabic gum.
(§4) For 6 days after the single administration and then every day for 15 days.
(§5) When necessary, the mean lethal doses (LD 50) were calculated by the method of Behrens and Karber (BK) and Miller and Tainter (MT). The latter allowing to supply with, for the threshold of probability P=0.05 a limit of confidence for the LD 50. Further calculated were the LDo i.e. DMT=maximal doses always tolerated and the LD100 i.e. DMM=minimal doses always lethal.
The compound was administered in a single dose to batches of 10 male or female mice weighing […] at a rate of 1 ml per 20 g of body weight.

[2] = test system: atheromatous deposits of the aorta, Wistar rats; experiment: Macroscopic examination of aorta atheroma in rats on atheromatogenous diet; format: in vivo, rat; conditions: 100 mg/kg
Excerpt: (§6) The method utilized for the test was that, slightly altered of Aubert D. Feraud J. C., Lacaze B., Pepino., Ponak E. et Podesta M. as described in Atherosclerosis, Vol. 20 (1974), p. 263-280 (Experimental Atherogenesis in the Wistar Rat).
(§7) Diet: standard tablets UAE AO 3 enriched in cholesterol (0.5%) and in cholic acid (0.5).
After the studies, all the animals were sacrificed by subtotal puncture of the blood in the abdominal aorta after anesthesia by intravenous sodium Pentobarbital. The hearts, livers, aortas on which the score of atheroma was determined were taken. For this purpose, the aortas were longitudinally cut, then spread to allow a whole insight of the endothelial coating from the aortic valves until the branching of the coeliac stem (lower portion of the thoracic aorta).
Aorta was from an anatomic point of view divided into two parts:
Zone 1: aortic valves-first intercostal arters
Zone 2: first intercostal arters and branching of the coeliac stem
The intensity of the atheromatous deposits was determined according to the following scores:
Score 1: Discrete (<1 mm) and few deposit
Score 2: Numerous and discrete deposits
Score 3: Numerous and marked deposits (<1 mm)
Score 4: Very marked deposits or very numerous deposits but letting some uninfiltrated areas
Score 5: Deposits on the whole epithelium
Two parameters were considered:
the intensity of the observed damages determined according to the previously-given scores.

[3] = test system: atheromatous damages of the aorta, Wistar rats; experiment: Histopathological examination of atheroma in rats on atheromatogenous diet; format: in vivo, rat; conditions: 100 mg/kg
Excerpt: as §6, §7
The aorta, livers, hearts of the rats after sacrifice were […] with an aqueous solution of Bouin's Reagent and embedded in paraffin after washing with alcohols at increasing concentration and with toluene. The hearts were kept in blocks of paraffin for a further examination when necessary. The livers were stained using the technique of Hematein-eosin and the aorta were stained using the techniques of
orcein-light green to evidence the structural damages of the elastic strips
periodic acid, then Schiff's Reagent to locate the deposits of mucopolysaccharids […]
The intensity of the observed damages and the degree of atheromatosis were determined using one of the following scores: […]
The histopathological examinations provided individual scores which were analyzed, then reported for each batch. Three parameters were distinctly determined: […]
2. The intensity of the atheromatous damages found, determined by the previously-given scores.
3. The number of the observed atheromatous damage calculated on the basis of a batch of 15 animals each.

[4] = test system: female rats of Wistar strain; experiment: Tolerance, mortality and body weight in the rat atheroma study
Excerpt: (§8) Female rats of Wistar strain, free of specific pathogenic germs (EOPS) stemming from the breeding EVIC-CEBA
(§9) Diet of the animals: the animals were given the atheromatogenous regimen then while maintaining the same regimen, they were given for 4 days 250,000 IU/kg of vitamin D2 dissolved in olive oil (Sterogyl 15H). The compounds to be tested were given thereafter for 4 weeks immediately after the termination of the atheromatogenous regimen.
The behavior and the changes in weight of the animals were surveyed every day as well as by weekly weighing.

[5] = Acute toxicity after single intraperitoneal administration; format: in vivo; conditions: mouse, in vivo, ip, calculated LD 50 (about)
Excerpt: as §1, §2, §3, §4, §5

[6] = test system: hyperlipidaemia / atheroma in Wistar rats on atheromatogenous regimen; experiment: Biochemical testings in rats on atheromatogenous (cholesterol-rich) diet, including atheroma risk ratios; format: in vivo, rat; conditions: 100 mg/kg; for Cholesterol in LDL, variation in comparison to controls-Diet: LDL (estimate)
Excerpt: as §6, §8
Mean body weight: 160-180 g at the start of the test
as §7
15 animals per each batch and by cage in MACROLON (Safi) of 59 cm×38 cm, 5 cm filled with a litter of shavings of wood.
as §9
At the end of these studies the following tests were performed on all surviving animals.
Esterified blood cholesterol
Cholesterol in LDL (estimate)
The total score for each product was obtained by adding each individual scores and allowed the following classification
The protection against the atheromatogenous risk was evaluated using the following ratios: […]

[7] = test system: atheroma / hyperlipidaemia in Wistar rats on atheromatogenous regimen; experiment: Overall hypolipaemiant and anti-atheromatous classification (summarized scores); format: in vivo, rat; conditions: 100 mg/kg
Excerpt: as §6, §8, §7, §9

[8] = Maximal tolerated dose on chronic administration in the rat; conditions: in vivo
[9] = test system: hyperlipidaemia induced by TRITON WR 1339; experiment: Hyperlipidaemia induced by TRITON WR 1339 in the Wistar rat; format: in vivo; conditions: for Dose dependence of hypolipaemiant activity: 250 and 500 mg/kg
Experimental: Feeding by standard Regimen UAR A04
Drinking water ad libitum
6 animals per dose in a cage in MAKROLON of 60×40 cm filled with shavings of wood.
10 mn after: administration of the test compound
6 hours after: 1st sampling of the blood at the retro-orbital sinus
Total cholesterol by the colorimetric method of RICHMOND
Cholesterol in HDL by the colorimetric method of RICHMOND after precipitation by CONCANAVALIN A
Cholesterol in LDL by the colorimetric method of RICHMOND after precipitation by CONCANAVALIN A
Total lipids by the Zollner's sulphophosphovanillic method
Triglycerids by the BUCOLO's enzymatic method.

In the case of `CCOC(=O)C(C)(C)Oc1ccc(Cl)cc1` [Clofibrate], the LD50 [1] was 2500 mg/kg, the “Macroscopical examination total score” value [2] was 2.00 and the “Damaged animals, % of decrease in comparison with Controls-Diet” value ([2]; macroscopical) was -18.18%. For the same compound, the “Damaged animals, percentage” value ([2]; macroscopical) was 81.82%, the “Damaged animals, score in relation to Clofibrate” value ([2]; macroscopical) was 1.00 and the “Intensity of the damages, % of decrease in comparison with Controls-Diet” value ([2]; macroscopical) was -25.65%. For the same compound, the “Intensity of the damages, score in relation to Clofibrate” value ([2]; macroscopical) was 1.00, the Histological examination score [3] was 2.00 and the Mortality ([4]; rat, in vivo) was 4/15. For the same compound, the LD50 [5] was roughly 1800 mg/kg, the “Cholesterol in LDL / Cholesterol in HDL ratio (risk of atheroma)” value [6] was 5.35 and the “Cholesterol in LDL / Cholesterol in HDL, % in comparison with Controls-Diet” value [6] was -78.13%. The “Total Blood Cholesterol / Cholesterol in HDL ratio (risk of atheroma)” value [6] was 6.69, the “Total Blood Cholesterol / Cholesterol in HDL, % in comparison with Controls-Diet” value [6] was -74.91% and the “Cholesterol in HDL, variation in comparison to controls-Diet” value ([6]; 4 weeks) was “+104.17%”. For the same compound, the “Esterified cholesterol, variation in comparison to controls-Diet” value ([6]; 4 weeks) was -55.00%, the “Total Blood lipids, variation in comparison to controls-Diet” value ([6]; 4 weeks) was -35.43% and the “Total blood cholesterol, variation in comparison to controls-Diet” value ([6]; 4 weeks) was -48.75%. The “Triglycerids, variation in comparison to controls-Diet” value ([6]; 4 weeks) was -24.14%, the “Cholesterol in LDL, variation in comparison to controls-Diet” value ([6]; 4 weeks) was -55.37% and the “Classification of the anti-atheromatous action” value [7] was “Compound of the invention>Fenofibrate>Clofibrate”. It also gave an MTD [8] of roughly 100 mg/kg.

For `CC(C)OC(=O)C(C)(C)Oc1ccc(C(=O)c2ccc(Cl)cc2)cc1` [Fenclofibrate], the “Macroscopical examination total score” value [2] was 2.17, the “Damaged animals, % of decrease in comparison with Controls-Diet” value ([2]; macroscopical) was -16.67% and the “Damaged animals, percentage” value ([2]; macroscopical) was 83.33%. The “Damaged animals, score in relation to Clofibrate” value ([2]; macroscopical) was 0.92, the “Intensity of the damages, % of decrease in comparison with Controls-Diet” value ([2]; macroscopical) was -31.97% and the “Intensity of the damages, score in relation to Clofibrate” value ([2]; macroscopical) was 1.25. The “Intensity of the damages, quotation” value ([2]; macroscopical, scores 0 to 5) was 1.83, the Histological examination score [3] was 2.13 and the Mortality ([4]; 100 mg/kg, 4 weeks, atheromatogenous regimen (batch No. 2: 2/15)) was 3/15. The “Atheromatous risk total score” value [6] was 0.23, the “Cholesterol in LDL / Cholesterol in HDL, % in comparison with Controls-Diet” value [6] was -12.35% and the “Cholesterol in LDL / Cholesterol in HDL, score in comparison with Clofibrate” value [6] was 0.16. The “Total Blood Cholesterol / Cholesterol in HDL, % in comparison with Controls-Diet” value [6] was -5.06%, the “Total Blood Cholesterol / Cholesterol in HDL, score in comparison with Clofibrate (=1)” value [6] was 0.07 and the “Cholesterol in HDL score (Clofibrate=1)” value ([6]; 4 weeks) was 0.04. The “Cholesterol in HDL, variation in comparison to controls-Diet” value ([6]; 4 weeks) was “+4.17%”, the “Cholesterol in LDL score (Clofibrate=1)” value ([6]; 4 weeks) was 0.16 and the “Esterified cholesterol score (Clofibrate=1)” value ([6]; 4 weeks) was 0.40. The “Esterified cholesterol, variation in comparison to controls-Diet” value ([6]; 4 weeks) was -22.08%, the “Total Blood lipids score (Clofibrate=1)” value ([6]; 4 weeks) was 0.29 and the “Total Blood lipids, variation in comparison to controls-Diet” value ([6]; 4 weeks) was -10.31%. The “Total blood cholesterol score (Clofibrate=1)” value ([6]; 4 weeks) was 0.02, the “Total blood cholesterol, variation in comparison to controls-Diet” value ([6]; 4 weeks) was -1.09% and the “Triglycerids, variation in comparison to controls-Diet” value ([6]; 4 weeks) was -25.86%. The “Cholesterol in LDL, variation in comparison to controls-Diet” value ([6]; 4 weeks) was -8.69%, the Biochemistry total score ([6]; sum of individual scores, Clofibrate=1 each) was 1.98 and the “Classification of the anti-atheromatous action” value [7] was “Compound of the invention>Fenofibrate>Clofibrate”. For the same compound, the “Total Score (biochemistry, atheromatous risk, macroscopical, histological)” value [7] was 6.51.

In the case of `CC(C)OC(=O)C(C)(C)Oc1ccc(C(=O)c2ccc(Cl)cc2)cc1` [Procetofene, reference compound], the “Dose dependence of hypolipaemiant activity” value ([9]; 6 hours after TRITON WR 1339) was “directly proportional to the doses”, the “Dose dependence of hypolipaemiant activity” value ([9]; 24 hours after TRITON WR 1339) was “inversely proportional to the dose” and the “Cholesterol HDL/LDL score vs 250 mg/kg Procetofene” value ([9]; 6 hours after, 250 mg/kg oral) was 1.00. The “Total Score vs 250 mg/kg Procetofene” value ([9]; 6 hours after, 250 mg/kg oral) was 4.00, the “Total cholesterol score vs 250 mg/kg Procetofene” value ([9]; 6 hours after, 250 mg/kg oral) was 1.00 and the “Total lipids score vs 250 mg/kg Procetofene” value ([9]; 6 hours after, 250 mg/kg oral) was 1.00. The “Triglycerids score vs 250 mg/kg Procetofene” value ([9]; 6 hours after, 250 mg/kg oral) was 1.00, the “Cholesterol HDL/LDL score vs 250 mg/kg Procetofene” value ([9]; 6 hours after, 500 mg/kg oral) was 1.53 and the “Total Score vs 250 mg/kg Procetofene” value ([9]; 6 hours after, 500 mg/kg oral) was 5.12. The “Total cholesterol score vs 250 mg/kg Procetofene” value ([9]; 6 hours after, 500 mg/kg oral) was 1.65, the “Total lipids score vs 250 mg/kg Procetofene” value ([9]; 6 hours after, 500 mg/kg oral) was 0.65 and the “Triglycerids score vs 250 mg/kg Procetofene” value ([9]; 6 hours after, 500 mg/kg oral) was 1.29. For the same compound, the “Cholesterol HDL/LDL score vs 250 mg/kg Procetofene” value ([9]; 24 hours after, 250 mg/kg oral) was 1.00, the “Total Score vs 250 mg/kg Procetofene” value ([9]; 24 hours after, 250 mg/kg oral) was 4.00 and the “Total cholesterol score vs 250 mg/kg Procetofene” value ([9]; 24 hours after, 250 mg/kg oral) was 1.00. The “Total lipids score vs 250 mg/kg Procetofene” value ([9]; 24 hours after, 250 mg/kg oral) was 1.00, the “Triglycerids score vs 250 mg/kg Procetofene” value ([9]; 24 hours after, 250 mg/kg oral) was 1.00 and the “Cholesterol HDL/LDL score vs 250 mg/kg Procetofene” value ([9]; 24 hours after, 500 mg/kg oral) was 0.30. The “Total Score vs 250 mg/kg Procetofene” value ([9]; 24 hours after, 500 mg/kg oral) was 3.33, the “Total lipids score vs 250 mg/kg Procetofene” value ([9]; 24 hours after, 500 mg/kg oral) was 0.85 and the “Triglycerids score vs 250 mg/kg Procetofene” value ([9]; 24 hours after, 500 mg/kg oral) was 1.01. For the same compound, the “Antihyperlipaemiant activity, compound vs Procetofene” value ([9]; same doses (250 and 500 mg/kg)) was “antihyperlipaemiant activity about equal”.
